The test system of one test is UPEC. The test can be described thus: Emergence of spontaneous resistance on exposure to probe. The test is classed as cell-based, Escherichia coli. To be noted: range of concentrations. The source says:
The probe described herein is entirely novel with the only precedent being the structurally dissimilar molecule 2-(4-phenylphenyl)benzo[g]quinoline-4-carboxylic acid that we previously described in proof-of-concept studies (33). The probe described herein is uniquely poised for development as an infection-specific prevention and treatment therapeutic that enhances natural immune clearance of an infection, namely UTI. […] However, the probe has no effect on in vitro growth and viability of UPEC in the absence of immune factors. […] Furthermore, this probe would be expected to act upon traditional antibiotic resistant strains of E. coli.

Test [1] deals with panel of 68 receptors (Homo sapiens, UniProt P41145). The conditions noted are these: Opiate κ(OP2, KOP), hum, 10 μM.
For test [2], the target named is panel of 68 receptors (Homo sapiens, UniProt P48039). To be noted: Melatonin MT1, hum, 10 μM.
For test [3], the target named is panel of 68 receptors (Homo sapiens, UniProt P41595). To be noted: Serotonin (5-Hydroxytryptamine) 5-HT2B, hum, 10 μM.
Chain of panel of 68 receptors (Homo sapiens, UniProt P41595) (P41595 whole entry): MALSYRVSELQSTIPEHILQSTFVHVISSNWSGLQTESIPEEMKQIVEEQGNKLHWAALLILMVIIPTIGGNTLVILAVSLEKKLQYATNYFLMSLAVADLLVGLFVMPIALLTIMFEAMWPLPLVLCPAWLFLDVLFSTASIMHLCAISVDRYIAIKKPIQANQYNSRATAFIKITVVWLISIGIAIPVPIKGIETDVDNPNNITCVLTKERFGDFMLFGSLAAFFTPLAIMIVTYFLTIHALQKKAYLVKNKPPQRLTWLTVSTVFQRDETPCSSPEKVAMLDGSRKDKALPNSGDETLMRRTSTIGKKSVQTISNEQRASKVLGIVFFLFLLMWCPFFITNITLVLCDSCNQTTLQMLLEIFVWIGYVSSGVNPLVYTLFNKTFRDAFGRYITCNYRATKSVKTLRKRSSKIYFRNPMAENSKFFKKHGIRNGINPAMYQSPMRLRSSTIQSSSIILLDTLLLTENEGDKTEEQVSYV
The target in test [4] is panel of 68 receptors (Homo sapiens, UniProt P31645). The conditions noted are these: Transporter, Serotonin (5-Hydroxytryptamine) (SERT), hum, 10 μM.
Test [5] deals with panel of 68 receptors (Homo sapiens, UniProt P35462). To be noted: Dopamine D3, hum, 10 μM.
Test [6] deals with panel of 68 receptors (Homo sapiens, UniProt P35367). To be noted: Histamine H1, hum, 10 μM.
For test [7], the target named is panel of 68 receptors (Homo sapiens, UniProt P46098). To be noted: Serotonin (5-Hydroxytryptamine) 5-HT3, hum, 10 μM.
Test [8] has as its target panel of 68 receptors (Homo sapiens, UniProt P35372). The conditions noted are these: Opiate μ(OP3, MOP), hum, 10 μM.
Test [9] deals with panel of 68 receptors (Homo sapiens, UniProt P21728). To be noted: Dopamine D1, hum, 10 μM.
Chain of panel of 68 receptors (Homo sapiens, UniProt P21728) (P21728 whole entry): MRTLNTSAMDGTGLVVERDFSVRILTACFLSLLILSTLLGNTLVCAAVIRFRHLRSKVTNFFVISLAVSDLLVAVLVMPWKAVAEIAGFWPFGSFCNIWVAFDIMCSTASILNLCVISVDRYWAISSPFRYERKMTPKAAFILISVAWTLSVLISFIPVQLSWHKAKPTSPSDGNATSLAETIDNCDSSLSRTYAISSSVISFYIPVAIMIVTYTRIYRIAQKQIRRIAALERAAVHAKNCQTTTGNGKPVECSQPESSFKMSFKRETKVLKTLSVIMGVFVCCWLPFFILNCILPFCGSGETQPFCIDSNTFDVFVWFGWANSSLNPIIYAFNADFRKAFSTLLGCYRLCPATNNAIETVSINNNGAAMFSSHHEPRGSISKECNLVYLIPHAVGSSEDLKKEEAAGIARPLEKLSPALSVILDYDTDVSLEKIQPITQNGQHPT
The target in test [10] is panel of 68 receptors (Homo sapiens, UniProt P24530). The conditions noted are these: Endothelin ETB, hum, 10 μM.
For test [11], the target named is panel of 68 receptors (Rattus norvegicus, UniProt Q02294). The conditions noted are these: Calcium Channel N-Type, rat, 10 μM.
Test [12] concerns the target panel of 68 receptors (Homo sapiens, UniProt Q01959). The conditions noted are these: Transporter, Dopamine (DAT), hum, 10 μM.
The target in test [13] is panel of 68 receptors (Homo sapiens, UniProt P25103). The conditions noted are these: Tachykinin NK1, hum, 10 μM.
Chain of panel of 68 receptors (Homo sapiens, UniProt P25103) (P25103 whole entry): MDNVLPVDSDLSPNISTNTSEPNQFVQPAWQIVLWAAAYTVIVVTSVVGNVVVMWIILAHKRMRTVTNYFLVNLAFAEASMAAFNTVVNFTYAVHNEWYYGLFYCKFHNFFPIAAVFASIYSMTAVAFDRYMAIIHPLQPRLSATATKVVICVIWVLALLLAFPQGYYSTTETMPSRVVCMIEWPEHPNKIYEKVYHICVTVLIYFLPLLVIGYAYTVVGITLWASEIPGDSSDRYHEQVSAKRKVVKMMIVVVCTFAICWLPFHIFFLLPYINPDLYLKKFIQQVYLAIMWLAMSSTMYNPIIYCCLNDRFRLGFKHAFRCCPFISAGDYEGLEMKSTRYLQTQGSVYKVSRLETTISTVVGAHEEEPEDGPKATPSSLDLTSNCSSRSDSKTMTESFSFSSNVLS
In test [14] the target is panel of 68 receptors (Homo sapiens, UniProt P20309). To be noted: Muscarinic M3, hum, 10 μM.
Chain of panel of 68 receptors (Homo sapiens, UniProt P20309) (P20309 whole entry): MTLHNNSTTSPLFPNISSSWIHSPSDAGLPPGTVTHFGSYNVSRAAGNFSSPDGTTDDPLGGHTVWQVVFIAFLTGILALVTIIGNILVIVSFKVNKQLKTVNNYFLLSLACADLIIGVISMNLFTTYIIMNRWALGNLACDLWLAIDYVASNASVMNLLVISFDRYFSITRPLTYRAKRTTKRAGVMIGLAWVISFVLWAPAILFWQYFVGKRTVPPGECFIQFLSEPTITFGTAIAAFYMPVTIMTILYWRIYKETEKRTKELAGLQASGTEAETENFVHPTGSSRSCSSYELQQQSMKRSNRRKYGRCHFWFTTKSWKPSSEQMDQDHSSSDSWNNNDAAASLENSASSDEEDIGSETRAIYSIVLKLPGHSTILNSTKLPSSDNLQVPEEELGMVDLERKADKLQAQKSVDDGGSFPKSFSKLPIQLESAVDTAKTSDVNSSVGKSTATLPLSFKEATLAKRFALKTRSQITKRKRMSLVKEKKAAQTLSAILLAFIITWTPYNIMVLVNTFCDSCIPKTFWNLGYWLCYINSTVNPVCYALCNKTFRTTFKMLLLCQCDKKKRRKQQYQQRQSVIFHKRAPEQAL
Test [15] concerns the target panel of 68 receptors (Homo sapiens, UniProt P29274). The conditions noted are these: Adenosine A2A, hum, 10 μM.
Test [16] addresses panel of 68 receptors (Homo sapiens, UniProt P30542). To be noted: Adenosine A1, hum, 10 μM.
Test [17] addresses panel of 68 receptors (Homo sapiens, UniProt P41143). The conditions noted are these: Opiate δ1, (OP1, DOP), hum, 10 μM.
Test [18] addresses panel of 68 receptors (Homo sapiens, UniProt P08172). The conditions noted are these: Muscarinic M2, hum, 10 μM.
The target of test [19] is panel of 68 receptors (Homo sapiens, UniProt P11229). The conditions noted are these: Muscarinic M1, hum, 10 μM.
Chain of panel of 68 receptors (Homo sapiens, UniProt P11229) (P11229 whole entry): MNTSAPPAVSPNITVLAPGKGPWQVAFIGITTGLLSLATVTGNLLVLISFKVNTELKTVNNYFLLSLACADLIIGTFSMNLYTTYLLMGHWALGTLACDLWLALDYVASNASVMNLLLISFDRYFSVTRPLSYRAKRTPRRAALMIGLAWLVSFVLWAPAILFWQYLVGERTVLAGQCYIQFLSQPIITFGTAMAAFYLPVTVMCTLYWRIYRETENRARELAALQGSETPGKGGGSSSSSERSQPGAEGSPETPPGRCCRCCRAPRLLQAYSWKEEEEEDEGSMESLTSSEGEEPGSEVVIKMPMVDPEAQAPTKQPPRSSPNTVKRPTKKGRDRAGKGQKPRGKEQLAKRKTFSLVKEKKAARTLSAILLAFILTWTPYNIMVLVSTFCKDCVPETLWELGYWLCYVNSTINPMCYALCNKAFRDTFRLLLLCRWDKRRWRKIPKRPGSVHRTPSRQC
Test [20] concerns the target panel of 68 receptors (Homo sapiens, UniProt P07550). The conditions noted are these: Adrenergic β2, hum, 10 μM.
For test [21], the target named is panel of 68 receptors (Homo sapiens, UniProt P49146). To be noted: Neuropeptide Y Y2, hum, 10 μM.
Test [22] concerns the target panel of 68 receptors (Homo sapiens, UniProt Q99720). The conditions noted are these: Sigma σ1, hum, 10 μM.
Test [23] addresses panel of 68 receptors (Mus musculus, UniProt P13504). The conditions noted are these: Interleukin IL-1, mouse, 10 μM.
In test [24] the target is panel of 68 receptors (Homo sapiens, UniProt P03372). To be noted: Estrogen ERα, hum, 10 μM.
In test [25] the target is panel of 68 receptors (Homo sapiens, UniProt P35408). To be noted: Prostanoid EP4, hum, 10 μM.
Chain of panel of 68 receptors (Homo sapiens, UniProt P35408) (P35408 whole entry): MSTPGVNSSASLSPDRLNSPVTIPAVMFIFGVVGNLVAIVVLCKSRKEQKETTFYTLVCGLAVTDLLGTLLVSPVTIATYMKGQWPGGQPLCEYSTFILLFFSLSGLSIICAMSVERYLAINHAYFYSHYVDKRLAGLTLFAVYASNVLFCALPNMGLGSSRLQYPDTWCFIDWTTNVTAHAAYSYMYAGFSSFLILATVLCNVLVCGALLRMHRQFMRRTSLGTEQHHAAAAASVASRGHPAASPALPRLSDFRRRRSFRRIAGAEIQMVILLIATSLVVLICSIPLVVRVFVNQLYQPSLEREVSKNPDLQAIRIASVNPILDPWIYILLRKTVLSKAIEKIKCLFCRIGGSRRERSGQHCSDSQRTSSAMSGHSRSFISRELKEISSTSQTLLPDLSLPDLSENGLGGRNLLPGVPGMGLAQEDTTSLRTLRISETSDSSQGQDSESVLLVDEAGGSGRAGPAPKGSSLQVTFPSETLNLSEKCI
For test [26], the target named is panel of 68 receptors (Homo sapiens, UniProt P30411). To be noted: Bradykinin B2, hum, 10 μM.
Test [27] deals with panel of 68 receptors (Rattus norvegicus, UniProt P43140). To be noted: Adrenergic α1A, rat, 10 μM.
Test [28] deals with panel of 68 receptors (Homo sapiens, UniProt P02708). To be noted: Nicotinic Acetylcholine α1, Bungarotoxin, hum, 10 μM.
Chain of panel of 68 receptors (Homo sapiens, UniProt P02708) (P02708 21-457): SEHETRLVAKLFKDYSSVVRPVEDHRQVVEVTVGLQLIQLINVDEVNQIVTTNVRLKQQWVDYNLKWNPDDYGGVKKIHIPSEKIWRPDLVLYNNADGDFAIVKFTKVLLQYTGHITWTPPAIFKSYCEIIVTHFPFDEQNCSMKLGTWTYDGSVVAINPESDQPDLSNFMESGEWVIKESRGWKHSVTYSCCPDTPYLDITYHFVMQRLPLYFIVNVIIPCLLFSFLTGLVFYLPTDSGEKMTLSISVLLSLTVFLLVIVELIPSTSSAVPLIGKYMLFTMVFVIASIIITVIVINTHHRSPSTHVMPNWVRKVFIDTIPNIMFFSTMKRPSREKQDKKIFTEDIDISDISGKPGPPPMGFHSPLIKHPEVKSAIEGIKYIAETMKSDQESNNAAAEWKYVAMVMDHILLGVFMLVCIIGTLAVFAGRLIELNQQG

Chain of panel of 68 receptors (Homo sapiens, UniProt P07550) (P07550 whole entry): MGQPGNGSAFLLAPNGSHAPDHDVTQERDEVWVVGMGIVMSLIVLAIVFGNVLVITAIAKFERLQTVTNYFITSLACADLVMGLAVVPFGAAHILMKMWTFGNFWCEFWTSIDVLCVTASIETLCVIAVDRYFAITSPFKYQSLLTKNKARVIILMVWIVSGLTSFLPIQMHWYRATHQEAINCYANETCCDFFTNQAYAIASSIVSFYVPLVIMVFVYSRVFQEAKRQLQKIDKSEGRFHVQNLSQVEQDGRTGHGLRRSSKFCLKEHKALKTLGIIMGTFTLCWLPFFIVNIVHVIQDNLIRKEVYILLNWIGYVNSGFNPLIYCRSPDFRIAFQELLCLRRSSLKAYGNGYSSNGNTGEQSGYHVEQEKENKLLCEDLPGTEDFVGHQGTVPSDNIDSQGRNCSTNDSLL
Chain of panel of 68 receptors (Homo sapiens, UniProt Q01959) (Q01959 whole entry): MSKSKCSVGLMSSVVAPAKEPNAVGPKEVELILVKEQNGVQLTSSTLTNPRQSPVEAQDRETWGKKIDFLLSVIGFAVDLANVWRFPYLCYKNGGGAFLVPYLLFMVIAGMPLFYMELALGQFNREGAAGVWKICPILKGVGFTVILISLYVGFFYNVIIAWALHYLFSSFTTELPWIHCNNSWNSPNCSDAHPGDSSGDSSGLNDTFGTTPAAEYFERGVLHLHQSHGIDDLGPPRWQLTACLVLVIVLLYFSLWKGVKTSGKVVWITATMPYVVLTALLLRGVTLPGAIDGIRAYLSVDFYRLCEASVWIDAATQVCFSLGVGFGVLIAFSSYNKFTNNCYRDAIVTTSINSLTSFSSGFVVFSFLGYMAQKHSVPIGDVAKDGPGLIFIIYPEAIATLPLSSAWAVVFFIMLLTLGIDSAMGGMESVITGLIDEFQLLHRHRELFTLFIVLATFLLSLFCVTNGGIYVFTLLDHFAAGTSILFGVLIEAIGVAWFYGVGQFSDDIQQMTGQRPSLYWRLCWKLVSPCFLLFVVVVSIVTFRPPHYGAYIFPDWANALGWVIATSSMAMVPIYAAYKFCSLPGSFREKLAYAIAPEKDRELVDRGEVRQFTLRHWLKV
Chain of panel of 68 receptors (Homo sapiens, UniProt P29274) (P29274 whole entry): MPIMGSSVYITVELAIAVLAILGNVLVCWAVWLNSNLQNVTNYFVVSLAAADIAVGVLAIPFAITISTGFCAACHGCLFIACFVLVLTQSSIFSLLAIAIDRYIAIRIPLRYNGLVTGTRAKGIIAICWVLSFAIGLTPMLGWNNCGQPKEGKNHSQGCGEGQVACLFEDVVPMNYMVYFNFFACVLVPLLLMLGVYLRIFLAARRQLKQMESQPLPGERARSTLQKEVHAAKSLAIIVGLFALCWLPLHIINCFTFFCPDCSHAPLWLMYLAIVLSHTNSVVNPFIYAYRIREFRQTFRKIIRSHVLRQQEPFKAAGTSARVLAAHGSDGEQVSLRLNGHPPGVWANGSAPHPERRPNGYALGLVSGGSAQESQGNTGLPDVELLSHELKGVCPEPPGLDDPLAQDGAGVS

Turning to `CCOc1ccc(-c2cc(NC(=O)c3c(F)cccc3F)c(C(=O)O)s2)cc1` [ML317, 3-(2,6-difluorobenzamido)-5-(4-ethoxyphenyl)thiophene-2-carboxylic acid], the “Emergence of spontaneous resistance in the laboratory” value with UPEC is “has not resulted in the emergence of spontaneous resistance”.

As to `CCOc1ccc(-c2cc(NC(=O)c3c(F)cccc3F)c(C(=O)O)s2)cc1` [KUC107784N-02], the “% Inh.” value on panel of 68 receptors [1] was determined as 14%; on panel of 68 receptors [2], 3%; at panel of 68 receptors [3], 11%; at panel of 68 receptors [4], 8%; on panel of 68 receptors [5], 4%; at panel of 68 receptors [6] it was 2%. The “% Inh.” value on panel of 68 receptors [7] is reported as −11%; on panel of 68 receptors [8], 3%; on panel of 68 receptors [9], 5%; on panel of 68 receptors [10] it was 3%; on panel of 68 receptors [11], −16%; on panel of 68 receptors [12], 8%. For the same compound, the “% Inh.” value is 7% on panel of 68 receptors [13]; 14% on panel of 68 receptors [14]; 19% on panel of 68 receptors [15]; 28% at panel of 68 receptors [16]; 0% at panel of 68 receptors [17]; −8% at panel of 68 receptors [18]. The “% Inh.” value at panel of 68 receptors [19] is recorded as 1%; at panel of 68 receptors [20], 3%; at panel of 68 receptors [21], −3%; on panel of 68 receptors [22] it was 5%; at panel of 68 receptors [23], 3%; on panel of 68 receptors [24] it was 9%. The “% Inh.” value on panel of 68 receptors [25] is −4%; at panel of 68 receptors [26] it was 6%; on panel of 68 receptors [27], 16%; at panel of 68 receptors [28] it was 8%.

Values taken from US9688653B2, “Ethoxyphenyl thienyl compounds and methods for the treatment of bacterial infections” (Duke University, priority 2013, dated 2017).
